Here are results for one compound from paper PMC12470768, “Mentha rotundifolia, a Source of Amoebicidal Agents Against Naegleria fowleri” (International Journal of Molecular Sciences, 2025).

In series [1] the test system is N. fowleri trophozoites. The series can be described thus: Cytoskeletal integrity (phalloidin-TRITC actin staining). Format: cell-based, Naegleria fowleri. The conditions noted are these: IC90; compound 7 on ATCC 30808, compound 10 on ATCC 30215. How it is done: (§1) To evaluate the induction of PCD, N. fowleri strains ATCC® 30808™ and ATCC® 30215™ were treated with the IC90 concentration of the compounds 7 and 10 for 24 h at 37 °C. After incubation, specific fluorescent markers were used to assess various detectable metabolic events, following the manufacturers’ instructions for each assay. Amphotericin B was used as a positive control, and untreated amoebae served as a negative control. Fluorescence imaging was performed using EVOS M5000 Cell Imaging System (Life Technologies, Madrid, Spain) and confocal microscope Leica DMI 4000 B equipped with Leica Application Suite X software version 3.5.5.19976 and Leica HC PL APO 63x/1.40 OIL CS2 objective (Leica Microsystems, Wetzlar, Germany). The fluorescence obtained was expressed as mean ± standard deviation from at least three independent experiments.
Cytoskeletal disruption in treated amoebae was evaluated by staining with phalloidin conjugated to tetramethylrhodamine B isothiocyanate (phalloidin- TRITC), which binds specifically to filamentous actin, emitting red fluorescence. DAPI staining was used in parallel to visualize nuclear DNA, emitting blue fluorescence. […] Following washing with PBS, fluorescence images were captured with a 63x oil immersion objective.

The subject of series [2] is N. fowleri ATCC® 30215™ trophozoites. The series can be described thus: In vitro amoebicidal activity against N. fowleri trophozoites (alamarBlue), strain ATCC 30215. The series is classed as cell-based, Naegleria fowleri. The conditions noted are these: trophozoite stage. The method, then: (§2) The in vitro activity of the tested compounds against Naegleria fowleri trophozoites was evaluated using two clinical strains obtained from the American Type Culture Collection (ATCC® 30808™ and ATCC® 30215™). Trophozoites were cultured axenically at 37 °C in 2% (w/v) Bactocasitone medium (Thermo Fisher Scientific, Madrid, Spain), supplemented with 10% (v/v) fetal bovine serum (FBS), […] penicillin G sodium salt, and 0.5 mg/mL streptomycin sulfate (Sigma-Aldrich, Madrid, Spain). For cytotoxicity assessment, murine macrophages from the J774A.1 cell line (ATCC® TIB-67) were cultured in Dulbecco’s Modified Eagle’s Medium (DMEM) supplemented with 10% (v/v) FBS and 10 μg/mL gentamicin sulfate (Sigma-Aldrich, Madrid, Spain). The macrophages were maintained at 37 °C in a 5% CO2 atmosphere.
The trophocidal activity of the compounds was evaluated using the alamarBlue® colorimetric assay. N. fowleri trophozoites were seeded in duplicate in a 96-well microtiter plate at a concentration of 2 × 10^5 cells/mL and incubated for adhesion in Bactocasitone medium (2% v/w) (Thermo Fisher Scientific, Madrid, Spain), supplemented with 10% (v/v) fetal bovine serum (FBS), 0.3% penicillin G sodium salt, and 0.5 mg/mL streptomycin sulfate (Sigma-Aldrich, Madrid, Spain). Different concentrations of the evaluated compounds, prepared in fresh Bactocasitone medium, were added to the wells (50 µL per well). The negative control consisted of trophozoites incubated with the medium alone. After adding 10 µL of alamarBlue® reagent, the plates were incubated at 37 °C for 48 h with slight agitation. The data were analyzed using nonlinear regression with GraphPad Prism 9 software to determine the IC50 and IC90 values, which were then used for further studies on PCD [10].
In general terms: The colour change of resazurin is a common sign of viable cells or microbes.

The subject of series [3] is N. fowleri ATCC® 30808™ cyst stage. The series can be described thus: In vitro cysticidal activity against N. fowleri cysts (alamarBlue), strain ATCC 30808. Format: cell-based, Naegleria fowleri. How it is done:
Following the assays against trophozoites, the compounds were further evaluated for their activity against the cyst stage of N. fowleri (ATCC® 30808™ and ATCC® 30215™). To induce cyst formation, the trophozoites were centrifuged, resuspended in MYAS medium, and incubated under slight agitation at room temperature for 10 days. After this, mature cysts were harvested, pretreated with 0.5% SDS, and seeded in a 96-well microtiter plate at 2 × 10^5 cells/mL. The drugs were tested in serial dilutions, and after 24 h of incubation at 37 °C, the medium was replaced with fresh Bactocasitone medium. The colorimetric alamarBlue® assay was used to assess cyst viability, with 10 µL of reagent added to each well. The plates were incubated for an additional 72 h at 37 °C, and fluorescence was measured using the EnSpire® Multimode Plate Reader (PerkinElmer, Madrid, Spain). The results were compared to a negative control (untreated cysts) and a positive control (amphotericin B and miltefosine). The IC50 values were determined through nonlinear regression analysis.

The nature of series [4]: In vitro cytotoxicity on murine macrophages (alamarBlue). The conditions noted are these: mouse, J774A.1 murine macrophage cell line (ATCC TIB-67), mean ± SD. Format: cell-based. How it is done: as §2
The cytotoxicity of the compounds was assessed against the murine macrophage cell line J774A.1 (ATCC® TIB-67™). Cells were maintained at 37 °C in a 5% CO2 atmosphere in DMEM medium. In the assay, different concentrations of the compounds were added to the cells in a 96-well microtiter plate, and after 24 h of incubation, 10 µL of alamarBlue® reagent was added. The fluorescence intensity was measured using the EnSpire® Multimode Plate Reader (PerkinElmer, Madrid, Spain). The cytotoxic concentration required to reduce cell viability by 50% (CC50) was determined through nonlinear regression analysis using GraphPad Prism 9 software. The results were compared with those obtained against trophozoites to calculate the selectivity index (S.I.) for N. fowleri.

Series [5] concerns N. fowleri trophozoites. The series can be described thus: Mitochondrial membrane potential (JC-1). The series is classed as cell-based, Naegleria fowleri. The conditions noted are these: IC90, 24 h; compound 7 on ATCC 30808, compound 10 on ATCC 30215. How it is done:
as §1
Mitochondrial membrane potential (ΔΨm) was assessed using the JC-1 dye (1,1′,3,3′-tetraethyl-5,5′,6,6′-tetrachloroimidacarbocyanine iodide; Cayman Chemical, Madrid); following treatment, cells were harvested by centrifugation at 2500 rpm for 10 min and resuspended in JC-1 assay buffer. […] In cells with depolarized mitochondria, JC-1 remains in its monomeric form, emitting green fluorescence (emission at ~535 nm), indicating mitochondrial damage and a loss of ΔΨm.

Setting [6] is: selectivity index vs murine macrophages J774.

Each structure is given as a SMILES string.

As for `COC(=O)[C@]12CC[C@@H](C)[C@H](C)C1C1=CCC3[C@@]4(C)CC[C@H](OC(=O)CCC(=O)O)C(C)(C)C4CC[C@@]3(C)[C@]1(C)CC2` (stereo partly shown) [Compound 7, 3-O-(Hemisuccinyl)-methyl ursolate], in the series on N. fowleri trophozoites [1], the “actin cytoskeleton (phalloidin-TRITC)” value is “reduced actin signal intensity”. The IC50 was 29.7 ± 1.59 µM in series [2] (Naegleria fowleri, ATCC30215, 48 h, mean ± SD) and 36.6 ± 1.49 µM in series [3] (Naegleria fowleri, ATCC30808, mean ± SD). The “N. fowleri ATCC 30215 SI (CC50/IC50)” value in series [2] (setting [6]) is reported as greater than 5.90. For the same compound, the “N. fowleri ATCC 30808 SI (CC50/IC50), cyst stage” value in series [3] (setting [6]) is 4.78. Further, the CC50 at 24 h in series [4] was greater than 175 µM. Besides, in the series with N. fowleri trophozoites [5], the “mitochondrial membrane potential (JC-1)” value was “marked decrease in mitochondrial membrane potential”.

For orientation: IC50 means the concentration that gives 50% inhibition. Read a low IC50 as higher potency. As a reminder, the CC50 is the concentration giving 50% cytotoxicity.
